Results taken from US20260325473A1, “N-Beta-Hydroxybutyryl-Amino Acids and Related Compositions and Methods” (The Board of Trustees of the Leland Stanford Junior …, priority 2023, published 2026).

What was measured:
[1] = Metabolite quantitation in mouse plasma (QQQ-LC/MS); format: in vivo
Protocol: Preparation of plasma samples for LC-MS analysis. Plasma was collected from mice via a submandibular bleed into lithium heparin tubes (BD, 365985) and immediately transferred onto ice. The blood was centrifuged at 4° C. at 5000 rpm for 5 min and the top layer of plasma was aliquoted and frozen at −80 °C. To extract polar metabolites from plasma for LC-MS analysis, 150 μl of a 2:1 mixture of acetonitrile/methanol was added to 50 μl of plasma. The mixture was centrifuged at 4° C. for 10 min at 15,000 rpm and the supernatant was transferred to a LC-MS vial.
Targeted metabolomics. Targeted measurements were performed using an Agilent 6470 triple quadrupole LC-MS instrument. MS analysis was performed using AJS in negative mode. The AJS source parameters were set as follows: the dry gas temperature was set at 250° C. with a gas flow of 12 l/min and the nebulizer pressure at 25 psi; the sheath gas temperature was set to 300° C. with the sheath gas flow set at 12 l/min; and the capillary voltage was set to 3,500 V. Separation of polar metabolites was performed as described above in the ‘Untargeted measurements of metabolites by LC-MS’ section. Multiple reaction monitoring was performed for the indicated metabolites with the listed dwell times, fragmentor voltage, collision energies, cell accelerator voltages and polarities. Quantification of the endogenous metabolite concentrations were performed by generating a standard curve with known concentrations of each metabolite. Metabolite standards were analyzed alongside the plasma samples using the same targeted triple quadrupole LC/MS method. A calibration standard curve generated from the metabolite standard concentrations and total peak areas were used to calculate the concentrations of each endogenous metabolite. The dilution of the plasma during the sample preparation was also taken into account for the quantification.

primary cardiomyocytes = assay: Keto amino acid production in BHB-treated cardiomyocytes; format: cell-based, human; conditions: BHB 25 mM, overnight
Protocol: Human induced pluripotent stem cells (iPSCs) culture and cardiac differentiation into cardiomyocytes (CMs). Human iPSCs from healthy donors were provided by Stanford Cardiovascular Institute Biobank and cultured in the E8 medium. When iPSCs were grown to 95% confluence, the E8 medium was replaced with RPMI 1640 (GIBCO) supplemented with B27 minus insulin (GIBCO) and 5 µM CHIR-99021 (Selleck Chemicals) to start cardiac differentiation at day 0. On day 2, the medium was replaced with RPMI-B27 minus insulin. On day 3, the medium was changed to RPMI-B27 minus insulin containing 5 μM IWR-1 (Selleck Chemicals) and was maintained for 48 hours. On day 5, the medium was changed back to RPMI-B27 minus insulin and was maintained for 48 hours. Then, the cells were incubated with complete CM medium consisting of RPMI 1640 medium and B27 supplement plus insulin (GIBCO). On day 12, the medium was replaced with RPMI-B27 without D-glucose (GIBCO) for metabolic purification of CMs for 4 days. Then, the medium was changed to the complete CM medium and replaced every 2 days. Human iPSC-CMs were dissociated by TrypLE Express (GIBCO) and re-plated on Matrigel-coated 12-well plate for further experiments. Cultures were maintained at 37° C. in a humidified incubator with 5% (v/v) CO^2.
Cellular enzyme activity assays. Cells were plated in 12-well plates at 70-80% confluence. […]

effect of acute treadmill running on level ([1]; 15 min running): unchanged | elevation after ketone ester administration ([1]; 30 min after ketone drink, 3 mg/g): > 10 fold | effect of strenuous and prolonged exercise on level ([1]; 30 min strenuous running): robust co-induction
Compound: CC(O)CC(=O)N[C@@H](Cc1ccccc1)C(=O)O (stereo partly shown) [BHB-Phe, N-betahydroxybutyryl-phenylalanine]
keto amino acid production by cardiomyocytes (primary cardiomyocytes): minor amount
